From PubChem BioAssay (NCI)
“And” between values parts separate entries of the source, which are not always exact repeats. Equal values may be shown once.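 How tested: cells in 96-well plates exposed to compound for 48 hours at five concentrations. Here, GI50 denotes the concentration required for 50% inhibition of growth. TGI: total growth inhibition.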

Test system: MDA-MB-468 breast
Experiment: inhibition of tumour cell growth, NCI panel, 48 h

CN(C)C(=S)Sc1ccc([N+](=O)[O-])cc1[N+](=O)[O-]
GI50: 2120 nM | TGI: 5.78 µM

CN(C)CCC(=O)C(=Cc1ccc(O)cc1)C(=O)CCN(C)C
GI50: 26800 nM | TGI: 75.2 µM

C=COC(=O)N[C@H]1CCc2cc(OC)c(OC)c(OC)c2-c2ccc(SC)c(=O)cc21
GI50: < 10 nM | TGI: > 100 µM

NCCc1cc(O)c(O)cc1O
GI50: 20700 nM | TGI: 97.8 µM

Cn1c(Nc2ccc(C(F)(F)F)cc2)nc2cc(Oc3ccnc(-c4ncc(C(F)(F)F)[nH]4)c3)ccc21
GI50: 127 nM | TGI: 11.4 µM

CS(=O)(=O)Nc1cc(-c2ccc3ncnc(Nc4c(Cl)ccc5c4OCO5)c3c2)cnc1Cl
GI50: 128 nM | TGI: 0.454 µM

COC(=O)c1ccc2c(c1)/C(=C\c1cc(Br)c(O)c(Br)c1)C(=O)N2
GI50: 6090 nM | TGI: > 22 µM

CCOC(=O)c1c(-c2ccc(OC)cc2)c(C#N)c2c(C#N)c(N)nn2c1N
GI50: 2080 nM | TGI: 6.86 µM

Cn1c(=O)c(Oc2ccc(F)cc2)cc2cnc(NC3CCOCC3)nc21
GI50: > 25000 nM | TGI: > 25 µM

CCN(Cc1ccc(F)cc1)c1ccc(CO)c(Br)c1
GI50: 22.4 nM | TGI: 0.0608 µM

O=S(=O)(Nc1ccc(Cl)cc1Cl)c1ccc(-c2cnc(C3CC3)o2)cc1
GI50: 339 nM | TGI: 2.9 µM

COc1ccc(C(O)(CCC(C)C)C(CN2CCOCC2)c2ccc(Cl)cc2)cc1 (stereo not drawn)
GI50: 7430 nM | TGI: 23.4 µM

Cc1ccc(Nc2oc(-c3ccccc3)nc2[P+](c2ccccc2)(c2ccccc2)c2ccccc2)cc1
GI50: 266 nM | TGI: 0.895 µM

COc1cc(/C=C\c2cc(OC)c(OC)c(OC)c2)cc(N/C=C\C(=O)c2cc(OC)c(OC)c(OC)c2)c1OC
GI50: 1880 nM | TGI: 6.34 µM

COc1ccc(-c2nnc(N3CCN(C(=O)CN4CCN(c5ccccc5)CC4)CC3)nc2-c2ccc(OC)cc2)cc1
GI50: 8310 nM | TGI: > 100 µM

CN1CC[C@@H](c2c(O)cc(O)c3c(=O)cc(-c4ccc(C(F)(F)F)cc4Cl)oc23)[C@@H]1CO
GI50: 12200 nM | TGI: 29.6 µM

O=[P@@]1(c2ccccc2)O[C@H](COCc2ccccc2)[C@@H](OCc2ccccc2)[C@H](OCc2ccccc2)[C@H]1NCc1ccccc1
GI50: 3060 nM | TGI: 12.6 µM

COc1ccc(-c2cc(/C=C/C(=O)c3ccc(OC)c(OC)c3)[nH]n2)cc1
GI50: 1220 nM | TGI: 2.94 µM

O=C1CCC/C=C\C[C@H]2C=CC(=O)/C2=C/C[C@H](C/C=C\CC(F)(F)F)O1
GI50: 521 nM | TGI: 2.51 µM

CCc1ccc(/C=C/c2ccc(O)c3ncccc23)[n+](C)c1
GI50: 539 nM | TGI: > 36.5 µM

CN(C)c1ccc(N=Nc2ccccn2)c(O)c1
GI50: 204 nM | TGI: 0.912 µM

COc1cc(C2CC(c3cccc(Nc4ccncc4)c3)=NN2c2ccc(Cl)cc2)cc(OC)c1OC (stereo not drawn)
GI50: 1630 nM | TGI: 3.45 µM

Cc1cc(N(CCCNc2ccnc3cc(Cl)ccc23)Cc2ccc3c(c2)OCO3)nc(N2CCOCC2)n1
GI50: 202 nM | TGI: 0.562 µM

Nc1c(C(=O)c2ccccc2)cnn1-c1ccc(F)cc1
GI50: > 25000 nM | TGI: > 25 µM

CC(C(=O)O)c1cccc(Oc2ccccc2)c1 (stereo not drawn)
GI50: > 100000 nM | TGI: > 100 µM

CN(C)C/C=C/C(=O)Nc1cc2c(Nc3ccc(F)c(Cl)c3)ncnc2cc1O[C@H]1CCOC1
GI50: < 10 nM and 1.12 nM | TGI: 0.01 µM and 0.0067 µM

O=[N+]([O-])c1ccc(CI)cc1
GI50: 1710 nM | TGI: 4.09 µM

Clc1nc(Cl)nc(Nc2cccc3ccccc23)n1
GI50: 52100 nM | TGI: > 100 µM

CSc1nc(NC2OC(COC(C)=O)C(OC(C)=O)C(OC(C)=O)C2OC(C)=O)c(N=CC=Nc2c(NC3OC(COC(C)=O)C(OC(C)=O)C(OC(C)=O)C3OC(C)=O)nc(SC)n(C)c2=O)c(=O)n1C (stereo not drawn)
GI50: 39400 nM | TGI: 50 µM

Cc1ccc2c(C3C(C#N)=C(N)Oc4cc5ccccc5cc43)cc(=O)oc2c1 (stereo not drawn)
GI50: 925 nM | TGI: 67.1 µM

COc1cccc2c1C(=O)c1c(O)c3c(c(O)c1C2=O)C[C@@](O)(/C(C)=N/NC(=O)c1ccc(Cl)cc1)C[C@@H]3OC1CC(N)C(O)C(C)O1 (stereo partly drawn)
GI50: 174 nM | TGI: 0.495 µM

Nc1ccn(C2OC(CO)C(O)C2O)c(=O)n1 (stereo not drawn)
GI50: > 61100 nM | TGI: > 100 µM

O=C1c2cccc3cccc(c23)C(=O)N1CCCCCN1CCN(CCCCCOc2ccc(-c3nc4ccc(N5CCOCC5)cc4[nH]3)cc2)CC1
GI50: 20300 nM | TGI: 34.6 µM

CC(C)OC(=O)[C@H](C)NP(=O)(OC[C@H]1O[C@@H](n2ccc(=O)[nH]c2=O)[C@](C)(F)[C@@H]1O)Oc1ccccc1 (stereo partly drawn)
GI50: > 100000 nM | TGI: > 100 µM

CC(C)=CCc1cc(O)cc2c1OC(C=C(C)C)C1=C2C(=O)C2=C(C1=O)S(=O)(=O)CCN2 (stereo not drawn)
GI50: 2680 nM | TGI: 8.24 µM

Nc1ncc(-c2ccc3ncnc(N4CCc5cc(F)c(Cl)cc54)c3c2)cc1CO
GI50: 236 nM | TGI: 0.933 µM

COc1ccc(-c2nsc3c2NC(=O)CC3c2cccc(OC)c2)cc1 (stereo not drawn)
GI50: 395 nM | TGI: 3.97 µM

O=C1c2cc3c(cc2-c2c1c1cc(Cl)c(Cl)cc1c(=O)n2C[C@H](O)CO)OCO3
GI50: < 10 nM | TGI: 0.0305 µM

Cn1cc(-c2csc(-c3c[nH]c4ccc(Br)cc34)n2)c2cnccc21
GI50: 1680 nM | TGI: 3.56 µM

CC1(C)N=C(N)N=C(N)N1c1ccc(CCCCc2ccc(Cl)c(S(=O)(=O)F)c2)c(Cl)c1
GI50: 2510 nM | TGI: 16.4 µM

O=C(NNc1ccccc1)C(=O)NNc1ccccc1
GI50: > 100000 nM | TGI: > 100 µM

C#Cc1nc(Nc2cc(C)[nH]n2)c2ccccc2n1
GI50: 184 nM | TGI: 0.45 µM

Cc1nc2cc(Nc3nc(Nc4ccc(F)cc4)nc(-c4cccs4)n3)ccc2n1Cc1ccccc1
GI50: 3620 nM | TGI: 35.4 µM

BrCc1cccc(C[P+](c2ccccc2)(c2ccccc2)c2ccccc2)c1
GI50: 2250 nM | TGI: 8.36 µM

C[C@H](Nc1cc(Cl)nc2c1cnn2[C@@H]1O[C@H](COP(=O)(O)CP(=O)(O)O)[C@@H](O)[C@H]1O)c1ccccc1F
GI50: > 100000 nM | TGI: > 100 µM

COc1ccccc1Nc1ncc(-c2ccccc2)o1
GI50: 3020 nM | TGI: > 25 µM

CC1CCN(C(=O)OCc2nc3nc(Cl)nc(N4CCOCC4)c3[nH]2)CC1
GI50: 715 nM | TGI: 2.37 µM

O=[N+]([O-])c1cccc2ccc(N/N=C/c3ccccc3O)nc12
GI50: 676 nM | TGI: > 100 µM

COc1cc(/C=C/C(=O)c2cccc(-n3cc(-c4ccc(Cl)cc4)[nH]c3=O)c2)ccc1O
GI50: 3120 nM | TGI: 19.2 µM
